The text below walks through data of patent US10124065B2, “Lipids and lipid compositions for the delivery of active agents” (Novartis AG, priority 2013, dated 2018).

The pKa is the pH at which an ionisable group is half protonated.

Data set [1] can be described thus: Particle size of lipid nanoparticle (dynamic light scattering, Malvern Zetasizer). The format is physicochemical. The source says:
The lipid nanoparticles have a size of about 1 to about 2,500 nm, about 1 to about 1,500 nm, about 1 to about 1,000 nm, in a sub-embodiment about 50 to about 600 nm, in a sub-embodiment about 50 to about 400 nm, in a sub-embodiment about 50 to about 250 nm, and in a sub-embodiment about 50 to about 150 nm. Unless indicated otherwise, all sizes referred to herein are the average sizes (diameters) of the fully formed nanoparticle, as measured by dynamic light scattering on a Malvern Zetasizer. The nanoparticle sample is diluted in phosphate buffered saline (PBS) so that the count rate is approximately 200-400 kcts. The data is presented as a weighted average of the intensity measure. Unless indicated otherwise, all particle size measurements referred to in Tables 4 and 5 are the Z-average particle size of the fully formed nanoparticle, as measured by dynamic light scattering on a Malvern Zetasizer. The nanoparticle sample was diluted in phosphate buffered saline (PBS) so that the count rate is approximately 200-400 kcts.

The nature of data set [2]: Polydispersity index (PDI) of lipid nanoparticle (dynamic light scattering). The format is physicochemical. The method, then:
Unless indicated otherwise, all PDIs referred to herein are the PDI of the fully formed nanoparticle, as measured by dynamic light scattering on a Malvern Zetasizer. The nanoparticle sample was diluted in phosphate buffered saline (PBS) so that the count rate was approximately 200-400 kcts. The data is presented in Tables 4 and 5 as a weighted average of the intensity measure.

Data set [3] can be described thus: pKa measurement of cationic lipid (TNS fluorescence). The format is physicochemical. The following applies: probe TNS; pKa of the cationic lipid of formula (I); Table 4; read-out: pKa. The method, then:
Unless indicated otherwise, all pKa's referred to herein were measured at standard temperature and pressure. Also, unless otherwise indicated, all references to pKa are references to pKa measured using the following technique. 2 mM solution of lipid in ethanol was prepared by weighing the lipid and then dissolving it in ethanol. 0.3 mM solution of fluorescent probe TNS in ethanol:methanol 9:1 was prepared by first making 3 mM solution of TNS in methanol and then diluting to 0.3 mM with ethanol. An aqueous buffer containing 200 mM sodium phosphate dibasic and 100 mM citric acid was prepared. […] Using the Hamilton Microlab Star high throughput liquid handler and Hamilton run control software Software, 7.5 uL of probe/lipid mix were added to 242.5 uL of buffer in a 1 mL 96 well plate (model NUNC 260252, […] Nunc International). This was done with all twelve buffers. After mixing in 1 mL 96 well plate, 100 uL of each probe/lipid/buffer mixture was transferred to a 250 uL black with clear bottom 96 well plate (model COSTAR 3904, Corning). The fluorescence measurements are carried out on the SpectraMax M5 spectrophotometer using software SoftMax pro 5.2 and following parameters: After the measurement, the background fluorescence value of an empty well on the 96 well plate was subtracted from each probe/lipid/buffer mixture. The fluorescence intensity values were then normalized to the value at lowest pH. The normalized fluorescence intensity vs. pH chart was then plotted in the Microsoft Excel software. The twelve points were connected with a smooth line. The point on the line at which the normalized fluorescence intensity was equal to 0.5 was found. […] The pKa determined using this method is precise to about 0.1 pKa units.

The test system of data set [4] is plasma Factor VII enzyme activity. Briefly: Mouse Factor VII dosing / Factor VII Activity Assay. Format: in vivo. The note with it: percent knock down of plasma Factor VII activity, CD-1 mice, 48 h; for KD FVII 0.3 mg/kg: single IV dose 0.3 mg/kg; for KD FVII 0.03 mg/kg: single IV dose 0.03 mg/kg. As to the method: Female CD-1 mice were received from Harlan Labs and maintained on standard lab chow and water ad libitum. The animals weighed approximately 25 grams at time of dosing. Formulated Factor VII siRNA was administered as a single dose intravenously via the lateral tail vein. Approximately 48 hours after injection, the mice were euthanized by CO2 inhalation followed by exsanguination through the vena cava. […] Plasma collected from injected mice was assayed for Factor VII enzyme activity using the Biophen FVII kit from Hyphen Biomedical (catalog number 221304). An assay standard curve was prepared using pooled plasma aliquots from the vehicle control animals. All samples were diluted to fall within the linear range of the standard curve and Factor VII activity relative to control plasma was reported. Lipid nanoparticles comprising lipid compounds of formula (I) and the FVII siRNA duplex sequence listed above were tested in the Factor VII Activity Assay. The results of this assay are given in Table 4 below as a percent knock down of plasma Factor VII enzyme activity at a dose of 0.3 mg/kg and 0.03 mg/kg.

In data set [5] the test system is respiratory syncytial virus F protein. Briefly: Immunization studies, anti-RSV-F titers. The format is in vivo. The note with it: anti-RSV-F titer; BALB/c; course A = days 0 & 21; 4 weeks after second dose; liposomes with 0.1 μg vA317 replicon (naked: 1 μg). The method, then:
BALB/c were immunized with liposomes comprising DSPC, cholesterol, and various lipids of the invention (or, for comparison, the cationic lipid 1,2-dilinoleyloxy-N,N-dimethyl-3-aminopropane or ‘DLinDMA’). The liposomes encapsulated 0.1 μg of “vA317” self-replicating RNA replicon which encodes respiratory syncytial virus F protein (see WO2012/031043). […] Doses were given either on days 0 & 21 or days 0 & 42. Immune responses were assessed 2 weeks after each dose (2wp1, 2wp2), and in some cases also at 4 weeks after the second dose (4wp2).
For orientation: In antiviral work, replicon cells carry a viral genome segment that copies itself.

Setting [6] is: FVII siRNA LNP, Chol/DSPC/S010, molar ratio 45/44/9/2, Z-average.
[7] abbreviates: FVII siRNA LNP, Chol/DSPC/S010, molar ratio 45/44/9/2.
[8] abbreviates: LNP Chol/DSPC/PEG-DMG 45/44/9/2.
The mark [9] stands for this setting: PLK1-424 siRNA LNP, Chol/DSPC/S010 45/44/9/2.

Structures are written as SMILES. Where “and” joins values, the source holds several entries; their conditions need not be identical. Equal values may be shown once.

For `CCCCC/C=C\C/C=C\CCCCCCCCOC(=O)CCCCOc1cc(CN(C)C)cc(OCCCCC(=O)OCCCCCCCC/C=C\C/C=C\CCCCC)c1` [Example 89, di((9Z,12Z)-octadeca-9,12-dien-1-yl) 5,5′-((5-((dimethylamino)methyl)-1,3-phenylene)bis(oxy))dipentanoate], the “Size (nm)” value in data set [1] (setting [6]) is 101.5 nm. Further, the PDI in data set [2] (setting [7]) turned out to be 0.076.
Take `CCCCCCCCCC(=O)OCCCCCCCC(=O)OCc1cc(COC(=O)CCCCCCCOC(=O)CCCCCCCCC)cc(CN(C)C)c1` [Example 83]: in data set [1] (setting [6]), the “Size (nm)” value is listed as 128.5 nm. For the same compound, the PDI in data set [2] (setting [7]) was 0.005.
With `CCCCCCCC(CCCCCCC)CCCC(=O)OCc1cc(COC(=O)CCCC(CCCCCCC)CCCCCCC)cc(CN(C)C)c1` [Ex. 117, (5-((dimethylamino)methyl)-1,3-phenylene)bis(methylene)bis(5-heptyldodecanoate)], the pKa in data set [3] was 5.46.
Take `CCCCCCCC(=O)OCC(COC(=O)CCCCCCC)OC(=O)CCC(=O)OCc1cc(COC(=O)CCC(=O)OC(COC(=O)CCCCCCC)COC(=O)CCCCCCC)cc(CN(C)C)c1` [Ex. 107, bis(1,3-bis(octanoyloxy)propan-2-yl) O,O′-((5-((dimethylamino)methyl)-1,3-phenylene)bis(methylene))disuccinate]: the “Size (nm)” value in data set [1] (setting [6]) is 191.7 nm. Further, the PDI in data set [2] (setting [7]) was determined as 0.071.
For `CCCCC/C=C\C/C=C\CCCCCCCC(=O)OCCCCOc1cc(CN(CC)CC)cc(OCCCCOC(=O)CCCCCCC/C=C\C/C=C\CCCCC)c1C` [Example 55, (9Z,9′Z,12Z,12′Z)-((5-((diethylamino)methyl)-2-methyl-1,3-phenylene)bis(oxy))bis(butane-4,1-diyl)bis(octadeca-9,12-dienoate)], the “KD FVII 0.3 mg/kg” value in data set [4] (setting [8]) turned out to be 98.0%.
Regarding `CCCCC/C=C\C/C=C\CCCCCCCCOC(=O)CCC(=O)OCc1cc(COC(=O)CCC(=O)OCCCCCCCC/C=C\C/C=C\CCCCC)cc(CN(C)C)c1` [Example 77, O,O′-((5-((dimethylamino)methyl)-1,3-phenylene)bis(methylene))di((9Z,12Z)-octadeca-9,12-dien-1-yl)disuccinate], the “Size (nm)” value in data set [1] (setting [6]) is reported as 154.1 nm. Also, the PDI in data set [2] (setting [7]) worked out at 0.014.
Take `CCCCC/C=C\C/C=C\CCCCCCCCOc1cc(COC(=O)CCN(C)C)cc(OCCCCCCCC/C=C\C/C=C\CCCCC)n1` [Example 31, (2,6-bis((9Z,12Z)-octadeca-9,12-dien-1-yloxy)pyridin-4-yl)methyl 3-(dimethylamino)propanoate]: in data set [1] (setting [6]), the “Size (nm)” value stood at 81.16 nm. The PDI in data set [2] (setting [7]) was 0.049.
With `CCCCC/C=C\C/C=C\CCCCCCCC(=O)OCCCCOc1cc(CN(C)C)cc(OCCCCOC(=O)CC(CCCCCCCC)CCCCCCCC)c1` [Ex. 109, (9Z,12Z)-4-(3-((dimethylamino)methyl)-5-(4-((3-octylundecanoyl)oxy)butoxy)phenoxy)butyl octadeca-9,12-dienoate], the “Size (nm)” value in data set [1] (setting [6]) is 91.98 nm. Also, the “KD FVII 0.03 mg/kg” value in data set [4] (LNP Chol/DSPC/S010 45/44/9/2) came out at 68.97%. In data set [2] (setting [7]), the PDI is 0.09.
On to `CCCCC/C=C\C/C=C\CCCCCCCCOc1cc(COC(=O)CCN(C)C)cc(OCCCCCCCC/C=C\C/C=C\CCCCC)c1` [Example 14, 3,5-bis((9Z,12Z)-octadeca-9,12-dien-1-yloxy)benzyl 3-(dimethylamino)propanoate], for which the “Size (nm)” value in data set [1] (setting [6]) was 81.74 nm. In data set [5], the “4wp2 pool 1” value is 13687 and 21375; the “4wp2 pool 2” value is 18851 and 21347. In data set [2] (setting [7]), the PDI is recorded as 0.059.
As for `CCCCCCCCCC(=O)OCCCCCCOc1cc(CN(C)C)cc(OCCCCCCOC(=O)CCCCCCCCC)c1` [Example 47, ((5-((dimethylamino)methyl)-1,3-phenylene)bis(oxy))bis(hexane-6,1-diyl)bis(decanoate)], the “KD FVII 0.3 mg/kg” value in data set [4] (setting [8]) was 99%.
Take `CCCCC/C=C\C/C=C\CCCCCCCC(=O)OCCCOc1cc(CN(C)C)cc(OCCCOC(=O)CC(CCCCCCCC)CCCCCCCC)c1` [Ex. 97, (9Z,12Z)-3-(3-((dimethylamino)methyl)-5-(3-((3-octylundecanoyl)oxy)propoxy)phenoxy)propyl octadeca-9,12-dienoate]: in data set [1] (setting [6]), the “Size (nm)” value is 98.01 nm. Besides, the PDI in data set [2] (setting [7]) stood at 0.106.
Take `CCCCCCCCOC(=O)CCCCCCCC(=O)OCCCOc1cc(CN(C)C)cc(OCCCOC(=O)CCCCCCCC(=O)OCCCCCCCC)c1` [Ex. 98, O′^1,O^1-(((5-((dimethylamino)methyl)-1,3-phenylene)bis(oxy))bis(propane-3,1-diyl)) 9-dioctyl dinonanedioate]: the “Size (nm)” value in data set [1] (setting [6]) is 164.6 nm. The PDI in data set [2] (setting [7]) worked out at 0.096.
As to `CCCCCCCC/C=C\CCCCCCCCOc1cc(CN(C)C)cc(OCCCCCCCC/C=C\CCCCCCCC)c1` [Example 1, 1-(3,5-bis((Z)-octadec-9-en-1-yloxy)phenyl)-N,N-dimethylmethanamine], the “Size (nm)” value was found to be 98.2 nm in data set [1] (FVII siRNA LNP, Chol/DSPC/PEG-DMG, molar ratio 45/44/9/2, Z-average); 87.16 nm in data set [1] (setting [6]); 74.56 nm in data set [1] (setting [9]). Moreover, in data set [4] (LNP Chol/DSPC/S010 45/44/9/2), the “KD FVII 0.03 mg/kg” value came to 30.8%. Moreover, the “KD FVII 0.3 mg/kg” value in data set [4] (setting [8]) is on record as 75.1%. In addition, the PDI worked out at 0.05 in data set [2] (FVII siRNA LNP, Chol/DSPC/PEG-DMG, molar ratio 45/44/9/2); 0.124 in data set [2] (setting [7]); 0.152 in data set [2] (setting [9]).
As to `CCCCCCCC(=O)OC[C@@H](CCOc1cc(CN(C)C)cc(OCC[C@H](COC(=O)CCCCCCC)OC(=O)CCCCCCC)c1)OC(=O)CCCCCCC` [Example 94, (R)-4-(3-((R)-3,4-bis(octanoyloxy)butoxy)-5-((dimethylamino)methyl)phenoxy)butane-1,2-diyldioctanoate], the “KD FVII 0.03 mg/kg” value in data set [4] (LNP Chol/DSPC/S010 45/44/9/2) was 90%.
For the compound `CCCCCCCC(=O)OC[C@H](CCOc1cc(CN(C)C)cc(OCC[C@@H](COC(=O)CCCCCCC)OC(=O)CCCCCCC)c1)OC(=O)CCCCCCC` [Example 93, (S)-4-(3-((S)-3,4-bis(octanoyloxy)butoxy)-5-((dimethylamino)methyl)phenoxy)butane-1,2-diyldioctanoate], the “KD FVII 0.03 mg/kg” value in data set [4] (LNP Chol/DSPC/S010 45/44/9/2) is on record as 89.71%.
As to `CCCCC/C=C\C/C=C\CCCCCCCC(=O)OCCCCOc1cc(CN2CCCC2)cc(OCCCCOC(=O)CCCCCCC/C=C\C/C=C\CCCCC)c1` [Ex. 112, (9Z,9′Z,12Z,12′Z)-((5-(pyrrolidin-1-ylmethyl)-1,3-phenylene)bis(oxy))bis(butane-4,1-diyl)bis(octadeca-9,12-dienoate)], the “KD FVII 0.03 mg/kg” value in data set [4] (setting [8]) is given as 86%.
